Values joined by “and” are separate entries in the source; they are usually repeats but may differ in a detail not shown here. Equal values may be shown once. “Also recorded” adds a separate entry of the source. Read-outs that look alike come from different tables or passages of the source.
Columns and labels:
α-glucosidase [1] = molecular target: T1, α-glucosidase (Saccharomyces cerevisiae, UniProt P38158); test: Inactivation kinetics, time course of α-glucosidase activity; format: biochemical; conditions: enzyme 0.075 µM, pNPG 2 mM
T1 construct: purchased Merck KGaA, Darmstadt, Germany
T1 sequence (P38158 whole entry): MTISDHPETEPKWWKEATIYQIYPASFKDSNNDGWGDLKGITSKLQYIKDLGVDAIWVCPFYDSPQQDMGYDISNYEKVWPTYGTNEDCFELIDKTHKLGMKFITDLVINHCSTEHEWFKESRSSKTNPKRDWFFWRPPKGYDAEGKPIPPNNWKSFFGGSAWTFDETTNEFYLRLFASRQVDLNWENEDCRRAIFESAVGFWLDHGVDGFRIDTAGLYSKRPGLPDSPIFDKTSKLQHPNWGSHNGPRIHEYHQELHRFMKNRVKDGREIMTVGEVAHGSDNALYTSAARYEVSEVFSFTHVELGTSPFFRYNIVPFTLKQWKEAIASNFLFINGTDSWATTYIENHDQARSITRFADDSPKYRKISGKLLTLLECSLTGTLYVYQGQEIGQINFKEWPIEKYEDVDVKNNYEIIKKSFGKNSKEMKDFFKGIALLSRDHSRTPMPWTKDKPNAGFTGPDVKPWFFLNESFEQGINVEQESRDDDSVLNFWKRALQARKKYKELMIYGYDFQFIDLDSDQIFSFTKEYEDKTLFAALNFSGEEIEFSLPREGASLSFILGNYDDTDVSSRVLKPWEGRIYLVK
Protocol: The enzyme and substrate concentrations were 0.075 µM and 2 mM, respectively.

α-glucosidase [2] = molecular target: T1, α-glucosidase; test: Fluorescence quenching analysis and thermodynamic parameters; format: binding; conditions: for Ksv (Stern–Volmer quenching constant): pH 6.8, α-glucosidase 0.35 µM; for Kd: read-out: Ka (binding constant) (converted)
Protocol: The interaction of inhibitors with α-glucosidase was studied using the fluorescence quenching method. […] Measurements were made in the emission range of 300–450 nm, with an excitation of 280 nm, after 10 min of stabilization. The fluorescent spectra of α-glucosidase (0.35 µM) and each inhibitor (0–1.0 µM) were carried out at three different temperatures (298, 304, and 310 K) and the bandwidths were set at 5 nm for both emission and excitation slits. For each sample, three fluorescence spectra were acquired, and the blank was subtracted. The compound quenching mechanism was assessed using the Stern–Volmer equation: F0 / F = 1 + Ksv[Q] = 1 + Kq^.τo[Q], where F0 and F are the fluorescence measure in absence and in presence of different concentrations of quencher, respectively; Ksv is the Stern–Volmer quenching constant; Kq is the coefficient of quencher rate coefficient; τ0 is the life time of the excited state; and [Q] is the concentration of the quencher.
Further elaboration of the equilibrium within the free and bound molecules can be achieved through the analysis of the fluorescence emission data utilizing the following equation: log (F0 − F) / F = log Ka + n log [Q], which obtains the binding constant (Ka) and the number of binding sites per protein (n) for the enzyme-inhibitor system.
Thermodynamic spontaneity is an important factor in the study of protein-ligand interaction. A system tends not only toward a lower energy state (enthalpy, ΔH), but also according to a state of disorder (entropy, ΔS). Thermodynamic parameters were obtained according to the Van ’t Hoff equation and the plot of “log Ka vs. 1/T”. The trade-off between enthalpy (ΔH°) and entropy (ΔS°) is used to obtain the standard free energy variation (ΔG°).

α-glucosidase [3] = molecular target: T1, α-glucosidase; test: Kinetic analysis of yeast α-glucosidase inhibition (Michaelis–Menten and Lineweaver–Burk plots); format: biochemical; conditions: for Inhibitor Potency (relative to acarbose): from Ki values; for Vmax of α-glucosidase: converted using the Lambert–Beer relationship
Protocol: The type of enzyme inhibition exerted by inhibitors was evaluated from kinetic studies using different substrate concentrations (0.25–2.5 mM pNPG) applying Michaelis–Menten and Lineweaver–Burk plots. Inhibition constants (Ki) were determined by plots of the Y-intercept of the Lineweaver–Burk plot vs. inhibitor concentration.

α-glucosidase [4] = molecular target: T1, α-glucosidase; test: Yeast α-glucosidase inhibitory assay (pNPG substrate, absorbance 405 nm); format: biochemical; conditions: for IC50: 2 mM pNPG
Protocol: α-Glucosidase inhibitory activity was determined according to a previous method. Briefly, 0.1 mM PBS (pH 6.8) was used to dissolve α-glucosidase and pNPG. In detail, 80 μL of PBS or 80 μL of test sample were added to 96-well plates. Successively, 20 μL of enzyme (0.025–0.125 µM) were added to each well. Magnolol (10–100 μM) and luteolin (5–50 μM) were prepared in DMSO (<1% v/v). […] Each sample was incubated with α-glucosidase for 10 min at 37 °C. The reaction started by adding 200 μL of pNPG (2 mM). The absorbance values were detected at 405 nm for 60 min, using a PerkinElmer Victor Nivo microplate spectrophotometer (Waltham, MA, USA). The α-glucosidase activity in the absence of inhibitors was defined as 100%. The half-maximal inhibitory concentration (IC50) was estimated by plot of relative enzymatic activity vs. inhibitor concentration.

α-glucosidase [5] = molecular target: T1, α-glucosidase; design: method as in PMID 24333230; conditions: ref 17; cited from earlier work
α-glucosidase [6] = conditions: cited from earlier work
α-glucosidase [7] = molecular target: T1, α-glucosidase; test: Synchronous fluorescence spectra; conditions: pH 6.8, 298 K
Description: The application of this method allows the identification of conformational changes in proteins according to the spectroscopic behavior of the tyrosine and tryptophan residues. Synchronous fluorescence spectra were collected in the emission range of 260–320 nm. The difference between excitation and emission wavelength (Δλ) was established at 15 nm (tyrosine residues) or at 60 nm (tryptophan residues).

[8] = 298–310 K, Van ’t Hoff equation

Q: For `O=c1cc(-c2ccc(O)c(O)c2)oc2cc(O)cc(O)c12` [Luteolin, 3’,4’,5,7-tetrahydroxyflavone], which “Inactivation rate constant K” value (α-glucosidase [1]; inhibitor 5 µM) is on record?
A: 2.67 ± 0.08 10^−4 s^−1

Q: What about the “Inactivation rate constant K” value (α-glucosidase [1]; inhibitor 10 µM) of the same compound?
A: 2.78 ± 0.08 10^−4 s^−1

Q: What about the “Inactivation rate constant K” value (α-glucosidase [1]; inhibitor 25 µM) of the same compound?
A: 2.81 ± 0.03 10^−4 s^−1

Q: What about the “Inactivation rate constant K” value (α-glucosidase [1]; inhibitor 40 µM) of the same compound?
A: 2.82 ± 0.04 10^−4 s^−1

Q: And the “Inactivation rate constant K” value (α-glucosidase [1]; inhibitor 50 µM)?
A: 2.84 ± 0.01 10^−4 s^−1

Q: What about the “Kq (bimolecular quenching constant)” value (α-glucosidase [2]; 298 K) of the same compound?
A: 23.22 ± 0.159 10^13 M^−1 s^−1

Q: What about the “n (number of binding sites)” value (α-glucosidase [2]; 298 K) of the same compound?
A: 1.10

Q: And the “ΔG° (free energy change)” value (α-glucosidase [2]; 298 K, Van ’t Hoff equation)?
A: -0.547 kcal/mol

Q: What about the “Ksv (Stern–Volmer quenching constant)” value (α-glucosidase [2]; 298 K) of the same compound?
A: 23.22 ± 0.16 10^5 M^−1

Q: What about the Kd (α-glucosidase [2]; 298 K) of the same compound?
A: 0.402 µM

Q: What about the “ΔH° (enthalpy change)” value (α-glucosidase [2]; [8]) of the same compound?
A: -2.18 kcal/mol

Q: What about the “∆S° (entropy change)” value (α-glucosidase [2]; [8]) of the same compound?
A: −22.95 J mol^−1K^−1

Q: What about the “Kq (bimolecular quenching constant)” value (α-glucosidase [2]; 304 K) of the same compound?
A: 21.73 ± 0.141 10^13 M^−1 s^−1

Q: And the “n (number of binding sites)” value (α-glucosidase [2]; 304 K)?
A: 1.28

Q: What about the “ΔG° (free energy change)” value (α-glucosidase [2]; 304 K, Van ’t Hoff equation) of the same compound?
A: -0.514 kcal/mol

Q: What about the “Ksv (Stern–Volmer quenching constant)” value (α-glucosidase [2]; 304 K) of the same compound?
A: 21.73 ± 0.14 10^5 M^−1

Q: What about the Kd (α-glucosidase [2]; 304 K) of the same compound?
A: 0.417 µM

Q: And the “Kq (bimolecular quenching constant)” value (α-glucosidase [2]; 310 K)?
A: 18.68 ± 0.120 10^13 M^−1 s^−1

Q: What about the “n (number of binding sites)” value (α-glucosidase [2]; 310 K) of the same compound?
A: 1.34

Q: What about the “ΔG° (free energy change)” value (α-glucosidase [2]; 310 K, Van ’t Hoff equation) of the same compound?
A: -0.48 kcal/mol

Q: And the “Ksv (Stern–Volmer quenching constant)” value (α-glucosidase [2]; 310 K)?
A: 18.68 ± 0.12 10^5 M^−1

Q: And the Kd (α-glucosidase [2]; 310 K)?
A: 0.464 µM

Q: And the fluorescence quenching mechanism (α-glucosidase [2]; based on Ksv and Kq values)?
A: static quenching mechanism

Q: What about the “number of binding sites” value (α-glucosidase [2]; no temperature stated) of the same compound?
A: approximately 1

Q: And the “Ki’ (binding constant of the inhibitor to the substrate-enzyme complex)” value (α-glucosidase [3]; 0.075 µM α-glucosidase)?
A: 35.4 µM

Q: And the Ki (α-glucosidase [3]; 0.075 µM α-glucosidase, secondary plots of slope versus [I], read-out: Ki (binding constant of the inhibitor to the free enzyme))?
A: 34.2 µM

Q: And the type of inhibition (α-glucosidase [3]; Michaelis–Menten and Lineweaver–Burk plots)?
A: non-competitive inhibition; also recorded: non-competitive reversible inhibitor

Q: What about the “Inhibitor Potency (relative to acarbose)” value (α-glucosidase [3]) of the same compound?
A: 10.4

Q: What about the “Inhibitor Potency (relative to acarbose)” value (α-glucosidase [3]; listed as luteolin) of the same compound?
A: ≥ 10

Q: What about the “Kcat of α-glucosidase” value (α-glucosidase [3]; inhibitor 5 µM, 0.075 µM α-glucosidase) of the same compound?
A: 2.95 ± 0.12 s⁻¹

Q: And the “Kcat of α-glucosidase” value (α-glucosidase [3]; inhibitor 10 µM, 0.075 µM α-glucosidase)?
A: 2.65 ± 0.13 s⁻¹

Q: What about the “Kcat of α-glucosidase” value (α-glucosidase [3]; inhibitor 25 µM, 0.075 µM α-glucosidase) of the same compound?
A: 2.02 ± 0.12 s⁻¹

Q: And the “Vmax of α-glucosidase” value (α-glucosidase [3]; inhibitor 25 µM)?
A: 9.10 ± 0.50 µM/min

Q: What about the “Kcat of α-glucosidase” value (α-glucosidase [3]; inhibitor 40 µM, 0.075 µM α-glucosidase) of the same compound?
A: 1.78 ± 0.12 s⁻¹

Q: What about the “Vmax of α-glucosidase” value (α-glucosidase [3]; inhibitor 40 µM) of the same compound?
A: 8.00 ± 0.50 µM/min

Q: And the “Kcat of α-glucosidase” value (α-glucosidase [3]; inhibitor 50 µM, 0.075 µM α-glucosidase)?
A: 1.41 ± 0.11 s⁻¹

Q: And the “Vmax of α-glucosidase” value (α-glucosidase [3]; inhibitor 50 µM)?
A: 6.34 ± 0.60 µM/min

Q: What about the reversibility of inhibition (α-glucosidase [4]; plots v vs. [α-glucosidase] at different inhibitor concentrations) of the same compound?
A: reversible inhibition

Q: What about the IC50 (α-glucosidase [4]; α-glucosidase 0.025 × 10^−6 M, read-out: IC50) of the same compound?
A: 14 ± 10.5 µM

Q: And the IC50 (α-glucosidase [4]; α-glucosidase 0.05 × 10^−6 M, read-out: IC50)?
A: 21.6 ± 11.7 µM

Q: What about the IC50 (α-glucosidase [4]; α-glucosidase 0.05 × 10^−6 M, read-out: −Log IC50 (converted)) of the same compound?
A: 21.9 µM

Q: What about the IC50 (α-glucosidase [4]; α-glucosidase 0.075 × 10^−6 M, read-out: IC50) of the same compound?
A: 32.3 ± 11.7 µM

Q: What about the IC50 (α-glucosidase [4]; α-glucosidase 0.125 × 10^−6 M, read-out: IC50) of the same compound?
A: 59.4 ± 12.3 µM

Q: And the “distance between inhibitor and α-glucosidase” value (α-glucosidase [5])?
A: 4.56 nm

Q: And the “times more potent than acarbose” value (α-glucosidase [6]; first of 'respectively', from literature IC50 values ref 18)?
A: 13 times

Q: What about the Ki (α-glucosidase [6]; ref 4) of the same compound?
A: 29 µM and 38 µM

Q: What about the IC50 (α-glucosidase [6]; ref 6) of the same compound?
A: 46 µM

Q: And the Ki (α-glucosidase [6]; ref 17)?
A: 140 µM

Q: And the IC50 (α-glucosidase [6]; ref 18)?
A: 13.1 µM

Q: And the “times more potent than acarbose” value (α-glucosidase [6]; second of 'respectively', from literature IC50 values ref 6)?
A: 17 times

Q: What about the “shift of synchronous fluorescence maximum” value (α-glucosidase [7]; ∆λ = 15 nm (tyrosine residues)) of the same compound?
A: blue shift from 286 to 283

Q: What about the “shift of synchronous fluorescence maximum” value (α-glucosidase [7]; ∆λ = 60 nm (tryptophan residues)) of the same compound?
A: no modification

From article PMC8880268, “Magnolol and Luteolin Inhibition of α-Glucosidase Activity: Kinetics and Type of Interaction Detected by In Vitro and In Silico Studies” (Pharmaceuticals, 2022)
